{"source": "patent US5773239A", "about": "“Mannosidase inhibitors, process for their preparation and their use as therapeutic agents” (Mount Sinai Hospital Corporation., priority 1995, dated 1998)", "key": {"MDAY-D2 tumor cells": {"tested_on": "MDAY-D2 tumor cells", "settings": "cited from earlier work"}, "[1]": {"molecular_target": "T1, rat liver Golgi α-mannosidase II (Rattus norvegicus, UniProt P28494)", "T1 construct": "The assay for rat liver Golgi α-mannosidase II; from tissue; host or cells: rat liver (Golgi)", "T1 sequence (P28494 1-1148)": "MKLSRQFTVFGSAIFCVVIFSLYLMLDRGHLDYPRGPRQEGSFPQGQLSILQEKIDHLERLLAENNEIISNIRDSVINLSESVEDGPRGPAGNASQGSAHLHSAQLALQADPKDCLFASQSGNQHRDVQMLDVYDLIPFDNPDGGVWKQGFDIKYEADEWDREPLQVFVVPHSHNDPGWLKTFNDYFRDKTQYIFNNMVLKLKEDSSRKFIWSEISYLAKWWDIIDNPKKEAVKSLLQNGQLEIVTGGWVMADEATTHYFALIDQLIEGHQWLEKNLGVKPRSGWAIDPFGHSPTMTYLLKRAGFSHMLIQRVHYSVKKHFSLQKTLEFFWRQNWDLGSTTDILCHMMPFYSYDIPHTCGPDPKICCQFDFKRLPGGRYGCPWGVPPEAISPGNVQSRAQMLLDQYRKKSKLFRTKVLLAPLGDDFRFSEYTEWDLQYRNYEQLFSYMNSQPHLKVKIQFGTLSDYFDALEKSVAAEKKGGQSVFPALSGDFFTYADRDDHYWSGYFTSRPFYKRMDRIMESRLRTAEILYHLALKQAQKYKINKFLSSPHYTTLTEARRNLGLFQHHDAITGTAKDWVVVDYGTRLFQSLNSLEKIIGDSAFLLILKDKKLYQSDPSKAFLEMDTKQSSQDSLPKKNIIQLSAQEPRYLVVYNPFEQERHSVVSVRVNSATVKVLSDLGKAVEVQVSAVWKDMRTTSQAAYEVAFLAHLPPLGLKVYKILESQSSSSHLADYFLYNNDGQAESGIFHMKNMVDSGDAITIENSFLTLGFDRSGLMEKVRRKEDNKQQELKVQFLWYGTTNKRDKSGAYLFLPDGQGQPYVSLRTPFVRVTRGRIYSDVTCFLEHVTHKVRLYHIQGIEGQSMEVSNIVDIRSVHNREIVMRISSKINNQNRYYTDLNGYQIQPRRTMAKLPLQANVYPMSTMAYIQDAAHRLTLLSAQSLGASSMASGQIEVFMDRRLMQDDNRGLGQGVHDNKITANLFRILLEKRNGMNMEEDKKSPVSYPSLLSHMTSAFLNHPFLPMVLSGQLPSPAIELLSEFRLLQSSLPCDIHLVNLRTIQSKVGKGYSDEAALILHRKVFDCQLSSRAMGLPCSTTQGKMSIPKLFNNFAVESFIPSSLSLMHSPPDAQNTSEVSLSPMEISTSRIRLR", "assay": "Rat liver Golgi α-mannosidase II assay", "format": "biochemical", "settings": "para-nitrophenyl α-mannose, pH 5.6; read-out: IC50 ManII", "experimental": "The assay for rat liver Golgi α-mannosidase II contained 5 mM para-nitrophenylα-mannose, 40 mM sodium acetate pH 5.6, plus serially diluted test compouunds and mannosidase enzyme in a total volume of 50 ul, in 96 well plates. Plates were incubated 45 min at 37° C., then the reaction was stopped with 50 μl of 0.5M sodium carbonate. […] The lysosomal mannosidase was done in the same procedure but with 40 mM sodium acetate buffer pH 5.0. The numbers in the table are IC50 values in μM for inhibition of mannosidase activity."}}}
{"compound": "O[C@H]1[C@H]2[C@H](O)CCCN2C[C@H]1O", "note": "[SW, Swainsonine, reference compound]", "values": [{"measurement": "L-PHA concentration to which cells cultured in the presence of SW are resistant", "setting": "MDAY-D2 tumor cells", "value": "> 100", "unit": "µg/mL"}, {"measurement": "IC50", "setting": "[1]", "value": 100, "unit": "nM"}]}
